Source: patent US20230034248A1, “PLANT STOMATA OPENING PROMOTING AGENT” (OAT Agrio Co., Ltd., priority 2019, published 2023)

System: lower epidermis of Commelina benghalensis L.
Assay: Abscisic acid-induced stomatal closure inhibitory activity, first evaluation (stomatal aperture of peeled lower epidermis)
Type: cell-based
Conditions: for Stomatal Aperture: 2 hours
Description: The lower epidermis of Commelina benghalensis L. was peeled off, immersed in the stomatal aperture measurement solution, and allowed to stand still in a dark place for 2 hours. Then, the lower epidermis of Commelina benghalensis L. was immersed in test solutions prepared by adding steviol to the stomatal aperture measurement solution to give 100 or 300 μM (final concentration) or in the stomatal aperture measurement solution without the addition of steviol (Comparative Example 1), and allowed to stand still in a bright place for 3 hours. The lower epidermis of Commelina benghalensis L. after immersion in the test solutions was photographed with a digital camera (LCD (Liquid Crystal Display), manufactured by KENIS LIMITED) attached to a microscope (Olympus BH2; objective lens SPlan 10 [manufactured by Olympus Corporation] magnification 200×). The stomatal aperture was measured with measurement software (digital microanalyzer, manufactured by Nippon Polaroid Corporation; Polaroid is the registered trademark). The stomatal aperture was measured for 80 or more stomata, for each addition concentration. The stomatal aperture obtained at each addition concentration was compared with the stomatal aperture obtained without the addition of steviol (0 μM, Comparative Example 1), and statistical analysis was performed by student's t-test.
The lower epidermis of Commelina benghalensis L. was peeled off, immersed in the stomatal aperture measurement solution, and allowed to stand still in a bright place for 3 hours. Then, the lower epidermis of Commelina benghalensis L. was immersed in test solutions prepared by adding 10 μM (final concentration) of abscisic acid and 400 or 600 μM of steviol to the stomatal aperture measurement solution or in the stomatal aperture measurement solution without the addition of steviol (Comparative Example 8) prepared by adding 10 μM (final concentration) of abscisic acid alone, and allowed to stand still for 2 hours. Then, the stomatal aperture was measured as in Example 1.
(§1) The lower epidermis of Commelina benghalensis L. was peeled off, immersed in the stomatal aperture measurement solution, and allowed to stand still in a bright place for 3 hours. Then, the lower epidermis of Commelina benghalensis L. was immersed in test solutions prepared by adding 10 μM (final concentration) of abscisic acid and 300 or 800 μM (final concentration) of stevioside to the stomatal aperture measurement solution or in the stomatal aperture measurement solution without the addition of stevioside (Comparative Example 9) prepared by adding 10 μm (final concentration) of abscisic acid alone, and allowed to stand still for 2 hours. Then, the stomatal aperture was measured as in Example 1.
as §1, with “100, 300,” for “300”, “500” for “800”, “rebaudioside A” for “stevioside”, “10)” for “9)”
The lower epidermis of Commelina benghalensis L. was peeled off, immersed in the stomatal aperture measurement solution, and allowed to stand still in a bright place for 3 hours. […]

[1] = addition concentration 300 μM with 10 μM abscisic acid

SMILES	stomatal aperture as compared to without the addition (student's t-test) (100, 300, or 500 μM with 10 μM abscisic acid)	Stomatal Aperture (addition concentration 100 μM with 10 μM abscisic acid)	Stomatal Aperture [1]	Stomatal Aperture (addition concentration 500 μM with 10 μM abscisic acid)	stomatal aperture as compared to without the addition (student's t-test) (400 or 600 μM with 10 μM abscisic acid)	Stomatal Aperture (addition concentration 400 μM with 10 μM abscisic acid)	Stomatal Aperture (addition concentration 600 μM with 10 μM abscisic acid)	stomatal aperture as compared to without the addition (student's t-test) (300 or 800 μM with 10 μM abscisic acid)	Stomatal Aperture (addition concentration 800 μM with 10 μM abscisic acid)
C=C1C[C@@]23CC[C@H]4[C@@](C)(CCC[C@@]4(C)C(=O)O[C@@H]4O[C@H](CO)[C@@H](O)[C@H](O)[C@H]4O)[C@@H]2CC[C@]1(O[C@@H]1O[C@H](CO)[C@@H](O)[C@H](O[C@@H]2O[C@H](CO)[C@@H](O)[C@H](O)[C@H]2O)[C@H]1O[C@@H]1O[C@H](CO)[C@@H](O)[C@H](O)[C@H]1O)C3 [rebaudioside A]	statistically significant increase in the stomatal aperture	7.74 ± 2.90 μm	9.85 ± 2.57 μm	9.32 ± 2.69 μm	–	–	–	–	–
C=C1C[C@@]23CC[C@H]4[C@@](C)(CCC[C@@]4(C)C(=O)O)[C@@H]2CC[C@]1(O)C3 [steviol]	–	–	–	–	statistically significant increase in the stomatal aperture	10.65 ± 0.48 μm	13.27 ± 0.49 μm	–	–
C=C1C[C@@]23CC[C@H]4[C@@](C)(CCC[C@@]4(C)C(=O)O[C@@H]4O[C@H](CO)[C@@H](O)[C@H](O)[C@H]4O)[C@@H]2CC[C@]1(O[C@@H]1O[C@H](CO)[C@@H](O)[C@H](O)[C@H]1O[C@@H]1O[C@H](CO)[C@@H](O)[C@H](O)[C@H]1O)C3 [stevioside]	–	–	7.03 ± 0.39 μm	–	–	–	–	statistically significant increase in the stomatal aperture	6.49 ± 0.32 μm
